Data on nine molecules can be found in EP4722219A1 (Gan & Lee Pharmaceuticals Co., Ltd., priority 2023, dated 2024).

One may read the pIC50 as −log10 of the IC50, conventionally taken in molar units. Low readings indicate a high IC50, high ones a low IC50.

pIC50: −log10 of the molar value.

Type in all cases: cell-based
For one assay, the system named is T-47D cells. Briefly: Inhibition of cell proliferation in T-47D cells (CCK-8). As to conditions: 6 days treatment, CCK-8 cell viability. As to the method:
Test Example 2 Inhibitory effect of PROTAC compounds provided by the present invention on cell proliferation in T-47D cells
The complete culture medium required for T-47D cells is 1640 (ATCC, Product number: A10491-01) basal culture medium containing 10% fetal bovine serum. T-47D cells were seeded in 96-well plates at a density of 3,000 cells/well, and different concentrations of PROTAC compounds 1-55 provided in the examples of the present invention and positive control sample ARV-471 (source: Inokai) were prepared to treat the cells and incubated at 37 °C, 5% CO2 cell culture incubator for 6 days. According to the manufacturer's instructions, cell viability was detected using a CCK-8 kit (Beyotime, Product number: C0040). The IC50 of each compound after treating for 6 days was calculated using GraphPadPrism software based on the inhibition rate. Table 2 Inhibition IC50 value of T-47D cell proliferation by PROTAC compounds provided by the present invention and positive control sample

Another assay has as its system MCF-7 cells. Briefly: Inhibition of cell proliferation in MCF-7 cells (CCK-8). The settings on record: MCF-7 cell proliferation, 6 days treatment. As to the method: Test Example 3 Inhibitory effect of PROTAC compounds provided by the present invention on cell proliferation in MCF-7 cells
The complete culture medium required for MCF-7 cells (source ATCC) is DMEM (gibco, Product number: 11995-065) basal culture medium containing 10% fetal bovine serum. MCF-7 cells were seeded in 96-well plates at a density of 800 cells/well, and different concentrations of PROTAC compounds 1-55 provided in the examples of the present invention and positive control sample ARV-471 (source: Inokai) were prepared to treat the cells and incubated at 37 °C, 5% CO2 cell culture incubator for 6 days. According to the manufacturer's instructions, cell viability was detected using a CCK-8 kit (Beyotime, Product number: C0040). The IC50 of each PROTAC compound after treating for 6 days was calculated using GraphPadPrism software based on the inhibition rate. Table 3 Inhibition IC50 value of MCF-7 cell proliferation by PROTAC compounds of the present invention and positive control sample

In assay [1] the target is T1, ERα (Homo sapiens, UniProt P03372).
T1 sequence (P03372 1-595): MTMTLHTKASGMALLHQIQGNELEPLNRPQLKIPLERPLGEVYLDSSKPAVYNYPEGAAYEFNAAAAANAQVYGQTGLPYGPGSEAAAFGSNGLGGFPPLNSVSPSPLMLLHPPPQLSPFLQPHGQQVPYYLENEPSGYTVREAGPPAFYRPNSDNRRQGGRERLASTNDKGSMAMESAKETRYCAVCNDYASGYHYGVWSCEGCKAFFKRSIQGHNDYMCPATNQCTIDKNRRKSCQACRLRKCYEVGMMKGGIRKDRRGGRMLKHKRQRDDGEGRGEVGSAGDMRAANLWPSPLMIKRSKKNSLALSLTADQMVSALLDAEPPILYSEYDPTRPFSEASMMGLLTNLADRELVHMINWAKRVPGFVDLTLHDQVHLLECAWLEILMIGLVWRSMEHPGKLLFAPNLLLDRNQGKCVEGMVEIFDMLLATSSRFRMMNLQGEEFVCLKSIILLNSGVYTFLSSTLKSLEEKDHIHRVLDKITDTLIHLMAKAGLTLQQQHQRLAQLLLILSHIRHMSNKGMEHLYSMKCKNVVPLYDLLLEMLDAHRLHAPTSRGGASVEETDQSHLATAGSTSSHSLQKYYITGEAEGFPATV
Briefly: ERα degradation in T-47D cells (Western blot). As to conditions: 4 hours. The protocol: (§1) Western blotting: The total protein concentration in the collected cell lysate supernatant was determined using the BCA protein concentration assay kit (enhanced) (P0009, Beyotime). Based on the total protein concentration determined by BCA, the protein concentration was adjusted to 1 µg/µL using RIPA lysis buffer and 5× SDS-PAGE protein loading buffer (MB01015, GenScript). The protein was denatured in a 95°C water bath for 5 minutes. After denaturation, the condensed water on the tube wall was collected by centrifugation and used as the loading sample. 20µL of the loading sample (20 µg of total protein) was added to the sample well of a 12% precast gel (M00669, GenScript). Electrophoresis was performed at 100 V for 20 minutes, followed by switching to 150 V for 40 minutes. After electrophoresis, the proteins from the SDS-PAGE gel were transferred to a PVDF membrane at a constant voltage of 100 V for 60 minutes. After transfer, the PVDF membrane corresponding to the ERα protein and internal reference protein was cut and incubated in 1× QµickBlock blocking buffer (P0252, Beyotime) for 30 minutes at room temperature on a shaker. After blocking, the ERα primary antibody (1:1000, 8644S, CST) was added and incubated overnight at 4°C on a shaker. The PVDF membrane was washed three times with 1× TBST buffer for 5 minutes each. Rabbit IgG (H+L) secondary antibody (1:7500, SA5-35571, Invitrogen) was added and incubated for 1 hour at room temperature on a shaker. The membrane was then washed again three times with 1× TBST buffer for 5 minutes each. Finally, the membrane was imaged using a dual-color infrared laser imaging system (Odyssey DLx, LICOR). Protein maps were analyzed for grayscale value using Image Studio Lite software. The grayscale correction value for each sample was calculated using the formula: grayscale correction value = grayscale value of the target protein / grayscale value of the corresponding internal reference. Then the grayscale correction values of the compound group and the control group were compared to calculate the degradation rate of the compound. Table 4 Degradation rate of ERα by PROTAC compounds of the present invention and positive control in MCF-7 cells (%)
Test Example 5 Degradation of ERα by the PROTAC compounds disclosed in the present invention in T-47D cells
T-47D (ATCC) cells were cultured in PRMI-1640 medium (30-2001, ATCC) containing 10% FBS (10099141C, Gibco) at 37°C and 5% CO2 until they entered the logarithmic growth phase. T-47D cells were seeded at a density of 3×10^5 cells/well in a 6-well plate and incubated at 37°C, 5% CO2 for 24 hours. After cell attachment, 1 µL of compound dimethyl sulfoxide solution (final concentration 0.15-1000 nM) was added and incubated for another 4 hours at 37°C, 5% CO2 incubator. After 4 hours, the culture medium was discarded, and each well was washed once with 1 mL of pre-chilled 1× DPBS. The cells were then lysed with 50 µL of RIPA lysis buffer (P0013B, Beyotime) and 1× protease inhibitor cocktail (P1005, Beyotime). After incubation on ice for 20 minutes, the cells were centrifuged at 14,000 g at 4°C for 30 minutes. The supernatant was carefully collected and analyzed for ERα protein levels by immunoblotting. Table 5 Degradation rate of ERα by PROTAC compounds of the present invention and positive control sample in T-47D cells (%)
On the technique in general: Immunoblotting shows a protein as a band on a membrane.

In assay [2] the target is T1, ERα. Briefly: ERα degradation in MCF-7 cells (Western blot). On the set-up: host or cells: MCF-7. As to conditions: 4 hours. The protocol: Test Example 4 Effect of PROTAC Compounds Disclosed in the Present Invention on ERα Degradation in MCF-7 Cells
MCF-7 (ATCC) cells were cultured in DMEM medium (11995-065, Gibco) containing 10% FBS (10099141C, Gibco) at 37°C and 5% CO2 until they entered the logarithmic growth phase. MCF-7 cells were plated at a density of 3×10^5 cells/well in a 6-well plate and incubated at 37°C, 5% CO2 for 24 hours. After cell attachment, 1µL of compound in dimethyl sulfoxide (final concentration 0.15-1000nM) was added and incubated for another 4 hours at 37°C, 5% CO2 incubator. After 4 hours, the culture medium was discarded, and each well was washed once with 1 mL of pre-chilled 1× DPBS. The cells were then lysed with 50 µL of RIPA lysis buffer (P0013B, Beyotime) and 1× protease inhibitor cocktail (P1005, Beyotime). After incubation on ice for 20 minutes, the cells were centrifuged at 14,000 g at 4°C for 30 minutes. The supernatant was carefully collected and analyzed for ERα protein levels by immunoblotting.
as §1

With `O=C1CCC(Nc2ccc3c(c2)COC[C@H]2CN(CC4CCC(OC5CCN(c6ccc([C@@H]7c8ccc(O)cc8CC[C@@H]7c7ccccc7)cc6)CC5)CC4)CCN32)C(=O)N1` (single isomer, unassigned) [ER-P-50], the pIC50 in the assay with T-47D cells (Homo sapiens, T47D, 144 h) is 7.34; with MCF-7 cells it was 5.49. Also, the results for the “Degradation rate of ERα in T-47D cells (%)” value on ERα [1] (1nM) and at ERα [1] (10nM) were 4% and 18%, respectively. In addition, the “Degradation rate of ERα in MCF-7 cells (%)” value at ERα [2] (1nM) is 1%; at ERα [2] (10nM), 9%.

Regarding `COc1cc2c(cc1C(=O)N[C@H]1CCC(=O)NC1=O)OCC21CCN(CC2CCC(OC3CCN(c4ccc([C@@H]5c6ccc(O)cc6CC[C@@H]5c5ccccc5)cc4)CC3)CC2)CC1` (stereo partly drawn) [ER-P-84, N-((S)-2,6-dioxopiperidin-3-yl)-1'-(((1S,4R)-4-((1-(4-((1R,2S)-6-hydroxy-2-phenyl-1,2,3,4-tetrahydronaphthalen-1-yl)phenyl)piperidin-4-yl)oxy)cyclohexyl)methyl)-5-methoxy-2H-spiro[benzofuran-3,4'-piperidine]-6-carboxamide], the pIC50 in the assay with T-47D cells is 7.75; in the assay with MCF-7 cells, 5.08.

Regarding `O=C1CC[C@H](NC(=O)c2c(F)ccc3c2OCC32CCN(CC3CCC(OC4CCN(c5ccc([C@@H]6c7ccc(O)cc7CC[C@@H]6c6ccccc6)cc5)CC4)CC3)CC2)C(=O)N1` (stereo partly shown) [ER-P-86], the pIC50 with T-47D cells is 7.16; in the assay on MCF-7 cells, 5.18.

As to `O=C1CCC(NC(=O)c2cc3c(cc2F)C2(CCN(CC4CCC(OC5CCN(c6ccc(C7c8ccc(O)cc8CCC7c7ccccc7)cc6)CC5)CC4)CC2)CO3)C(=O)N1` [ER-P-87, N-((S)-2,6-dioxopiperidin-3-yl)-5-fluoro-1'-(((1S,4R)-4-((1-(4-((1R,2S)-6-hydroxy-2-phenyl-1,2,3,4-tetrahydronaphthalen-1-yl)phenyl)piperidin-4-yl)oxy)cyclohexyl)methyl)-2H-spiro[benzofuran-3,4'-piperidine]-6-carboxamide], the pIC50 in the assay on T-47D cells (Homo sapiens, T47D, 144 h) was 7.28; in the assay with MCF-7 cells (Homo sapiens, MCF7, 144 h) it was 5.40.

As for `COc1cc2c(cc1C(=O)NC1CCC(=O)NC1=O)CCC1(CCN(CC3CCC(OC4CCN(c5ccc(C6c7ccc(O)cc7CCC6c6ccccc6)cc5)CC4)CC3)CC1)O2` (stereo not shown) [ER-P-88], the pIC50 with T-47D cells (Homo sapiens, T47D, 144 h) is 8.02; in the assay on MCF-7 cells (Homo sapiens, MCF7, 144 h) it was 5.99.

On to `O=C1CCC(NC(=O)c2cc3c(cc2F)OC2(CC3)CCN(CC3CCC(OC4CCN(c5ccc(C6c7ccc(O)cc7CCC6c6ccccc6)cc5)CC4)CC3)CC2)C(=O)N1` [ER-P-89, N-((S)-2,6-dioxopiperidin-3-yl)-7-fluoro-1'-(((1S,4s)-4-((1-(4-((1R,2S)-6-hydroxy-2-phenyl-1,2,3,4-tetrahydronaphthalen-1-yl)phenyl)piperidin-4-yl)oxy)cyclohexyl)methyl)spiro[chromane-2,4'-piperidine]-6-carboxamide], for which the pIC50 was 6.98 in the assay on T-47D cells (Homo sapiens, T47D, 144 h) and 5.56 in the assay on MCF-7 cells (Homo sapiens, MCF7, 144 h).

With `O=C1CCC(NC(=O)c2cc3c(cc2F)CCC2(CCN(CC4CCC(OC5CCN(c6ccc(C7c8ccc(O)cc8CCC7c7ccccc7)cc6)CC5)CC4)CC2)O3)C(=O)N1` [ER-P-90, N-((S)-2,6-dioxopiperidin-3-yl)-6-fluoro-1'-((((1S,4R)-4-((1-(4-((1R,2S)-6-hydroxy-2-phenyl-1,2,3,4-tetrahydronaphthalen-1-yl)phenyl)piperidin-4-yl)oxy)cyclohexyl)methyl)spiro[chromane-2,4'-piperidine]-7-carboxamide], the negative-log IC50 (pIC50) in the assay with T-47D cells (Homo sapiens, T47D, 144 h) was 6.77; in the assay with MCF-7 cells (Homo sapiens, MCF7, 144 h) it was 5.44.

On to `COc1cc2c(cc1C(=O)NC1CCC(=O)NC1=O)C1(CCN(CC3CCC(OC4CCN(c5ccc(C6c7ccc(O)cc7CCC6c6ccccc6)cc5)CC4)CC3)CC1)CO2` [ER-P-91, N-((S)-2,6-dioxopiperidin-3-yl)-1'-(((1S,4R)-4-((1-(4-((1R,2S)-6-hydroxy-2-phenyl-1,2,3,4-tetrahydronaphthalen-1-yl)phenyl)piperidin-4-yl)oxy)cyclohexyl)methyl)-6-methoxy-2H-spiro[benzofuran-3,4'-piperidine]-5-carboxamide], for which the pIC50 in the assay on T-47D cells (Homo sapiens, T47D, 144 h) was 6.82; in the assay with MCF-7 cells (Homo sapiens, MCF7, 144 h), 5.10.

On to “N-((S)-2,6-dioxopiperidin-3-yl)-6'-fluoro-1-(((1 S,4R)-4-((1-(4-((1R,2S)-6-hydroxy-2-phenyl-1,2,3,4-tetrahydronaphthalen-1-yl)phenyl)piperidin-4-yl)oxy)cyclohexyl)methy l)spiro[azetidine-3,2'-chromane]-7'-carboxamide [ER-P-85]”, for which the pIC50 with T-47D cells was 7.15; with MCF-7 cells, 6.02.
